Test results taken from patent EP2397471A1, “Benzimidazole compounds and their use” (China Medical University, priority 2010, dated 2011).

Columns and labels:
PC-3 cells [1] = experiment: In situ tubulin assay (immunofluorescence microscopy); assay type: cell-based; settings: 18 to 24 h
Experimental: The organization and formation of microtubule were detected by immunofluorescence microscopic examination in PC-3 cells.
PC-3 cells were seeded in 8-well chamber slides and incubated with a vehicle (0.1% DMSO, control), Compound 55 (10 µM), taxol (0.1 µM), or vincristine (0.1 µM) for 18 to 24 h. Then, the cells were fixed with 100 % methanol at -20°C for 5 min and incubated in 1 % bovine serum albumin (BSA) containing 0.1 % Triton X-100 at 37°C for 30 min. Cells were then washed twice with PBS for 5min and stained with primary antibody specific to β-tubulin at 37°C for 1 h. Afterwards, FITC-labeled secondary antibodies were used (staining performed at 37°C for 40 min, green fluorescence) and the protein was detected using a confocal laser microscopic system (Leica TCS SP2). The nuclei were visible by DAPI staining (1 mg/mL DAPI, blue fluorescence).

Ras, Raf-1, and MEK = experiment: Western blotting of Ras, Raf-1, MEK; assay type: cell-based; settings: PC-3 cells; 10 µM; 30-120 min for Ras, 6-24 hrs for Raf-1, MEK
Experimental: (§1) PC-3 cells were incubated with a vehicle (0.1% DMSO) as control or Coumpound 55 (10 µM) for 30 min, 45 min, 60 min, and 120 min for testing Ras; or for 6 hrs, 12 hrs, 18 hrs, and 24 hrs for testing Raf-1, Phospho-MEK, MEK, and GAPDH. After the treatment, cells were washed twice with ice-cold PBS and then lysed with 100 µL lysis buffer (20 mM Tris, pH 7.5, 1 mM MgCl2, 125 mM NaCl, 1% Triton X-100, 1 mM phenylmethylsulphonylfluoride, 10 µg/mL leupeptin, 10 µg/mL aprotinin, 25 mM β-glycerophosphate, 50 mM NaF, and 100 µM sodium orthovanadate). Then, the expressions of the above proteins were detected by Western blotting.

PC-3 cells [2] = experiment: FACScan flow cytometric analysis of cell cycle progression; assay type: cell-based; settings: 1 µM, 3 µM, and 10 µM, 0 hr to 48 hrs
Experimental: PC-3 cells were treated with Compound 55 (at different concentrations: 1 µM, 3 µM, and 10 µM) for 0 hr, 6 hrs, 12 hrs, 18 hrs, 24 hrs, 36 hrs, and 48 hrs. After treatment, cells were washed twice with ice-cold PBS, collected by centrifugation and fixed in 70% (v/v) ethanol at 4°C for 30 min. Then, cells were treated with 0.2 ml of a buffer (containing 0.2 M Na2HPO4 and 0.1 M citric acid buffer, pH 7.8) for 30 min, centrifuged, and then incubated in 1 mL propidium iodide (PI) staining buffer (0.1 % Triton X-100, 100 µg/mL RNase A, 80 µg/mL propidium iodide in PBS) at 37°C for 30 min. Cells were detected using a cytofluorometer, and analyzed by FACScan and CellQuest program (Becton Dickinson).

[3] = tested on: Cyclin E, Cyclin A, Cyclin B1, Cdk1, Cdk2, p27, MPM2; experiment: Western blot analysis of cell-cycle regulators; assay type: cell-based; settings: PC-3 cells; 10 µM
Experimental: as §1
The cell-cycle regulators were also examined by Western blot analysis. Proteins in the lysis (40 µg) were separated by electrophoresis in a 10 or 15% polyacrylamide gel, transferred to a nitrocellulose membrane and immuno-reacted with respective antibodies against Cyclin E, Cyclin A, Cyclin B1, Cdk1, Cdk2, p27, MPM2, and GAPDH.

Tubulin proteins = experiment: In vitro tubulin turbidity assay; assay type: biochemical; settings: absorbance at 340 nm, 37°C, 60 min
Experimental: Effects of the benzimidazole compounds on tubulin polymerization were detected using CytoDYNAMIX Screen 03 kit (Cytoskeleton, Inc., Denver, CO).
Tubulin proteins (> 99% purity) were suspended in G-PEM buffer containing 80 mM PIPES, 2 mM MgCl2, 0.5 mM […], and 1.0 mM GTP (pH 6.9) and 5% glycerol with or without a test compound. Then, the mixture was transferred to a 96-well plate and the absorbance was measured at 340 nm (37°C) for 60 min (SpectraMAX Plus, Molecular Devices Inc., Sunnyvale, CA).
Level oftubulin polymerization was determined by examining turbidity of the tubulin suspension. Absorbance of the suspension at 340 nm was plotted as a function of time. Accordingly, the velocity and magnitude of tubulin polymerization were determined.

[4] = tested on: Bcl-2 family member proteins, caspases; experiment: Western blot analysis of Bcl-2 family member proteins and caspases (apoptosis); assay type: cell-based; settings: PC-3 cells; 10 µM; 0 hr to 36 hrs
Experimental: Effect of benzimidazole compounds on inducing apoptosis was evaluated by testing their effect on the expression/activation of Bcl-2 family member proteins, caspases, and c-Jun N-terminal kinase (JNK). Bcl-2 family of proteins is the most important regulators of mitochondria-involved apoptotic cell death. The pro-apoptotic members, Bax, Bak and Bad, are required for the disruption of mitochondria; whereas the anti-apoptotic Bcl-2, Bcl-xL and Mcl-1 can prevent apoptosis by antagonizing the pro-apoptotic members.
PC-3 cells were incubated with a vehicle (0.1% DMSO) or Compound 55 (10 µM) for 0 hr, 6 hrs, 12 hrs, 18 hrs, 24 hrs, and 36 hrs. Then, the cells were harvested and lysed for the detection of protein expression with specific antibodies by western blot analysis. For Western blotting, the proteins (40 µg) in the lysis (including Phospho-Bcl-2, Bcl-2, Phospho-Bcl-xL, Bcl-xL, Mcl-1, Bax, Bak, Bad, GAPDH, cleaved Bad, Caspase-9, cleaved Caspase-9, Caspase-3, cleaved Caspase-3, poly-(ADP-ribose) polymerase (PARP), cleaved PARP, and GAPDH) were separated by electrophoresis in a 10 to 15% polyacrylamide gel, transferred to a nitrocellulose membrane and immuno-reacted with specific antibodies.

| SMILES | spindles and nuclei, in situ labeling of tubulin and chromosomes (PC-3 cells [1]; 10 µM) | expression of Ras, Raf-1, and MEK (Ras, Raf-1, and MEK) | cell population at G2/M phase (PC-3 cells [2]) | hypodiploid (sub-G1, apoptosis) population of the cell cycle (PC-3 cells [2]) | expression of cyclin B1 [3] | expression of cyclin E and cyclin A [3] | tubulin polymerization (Tubulin proteins) | Mcl-1 expression [4] | cleavage of caspase-9, caspase-3 and PARP [4] | phosphorylation and degradation of Bcl-2 and Bcl-xL [4] | spindles and nuclei, in situ labeling of tubulin and chromosomes (PC-3 cells [1]; 0.1 µM) |
| --- | --- | --- | --- | --- | --- | --- | --- | --- | --- | --- | --- |
| COc1cc(Cn2c(-c3ccccc3)nc3cc(N4CCCC4)ccc32)cc(OC)c1OC [Compound 55, 2-phenyl-5-(pyrrolidin-1-yl)-1-(3,4,5-trimethoxybenzyl)-1H benzo[d]imidazole] | mono-polar | upregulated Ras, Raf-1, and MEK | increase of cell population at G2/M phase | subsequent increase of hypodiploid (sub-G1, apoptosis) population | upregulated cyclin B1 | downregulated cyclin E and cyclin A | inhibited tubulin polymerization in a dose-dependent manner | decrease of Mcl-1 expression | cleaved to produce catalytically active fragments | induced the phosphorylation and degradation of Bcl-2 and Bcl-xL | – |
| CC[C@]1(O)C[C@H]2CN(CCc3c([nH]c4ccccc34)[C@@](C(=O)OC)(c3cc4c(cc3OC)N(C=O)[C@H]3[C@@](O)(C(=O)OC)[C@H](OC(C)=O)[C@]5(CC)C=CCN6CC[C@]43[C@@H]65)C2)C1 [vincristine] | – | – | – | – | – | – | – | – | – | – | multi-polar spindles and chromosome condensation were observed |
| CC(=O)O[C@H]1C(=O)[C@@]2(C)[C@H]([C@H](OC(=O)c3ccccc3)[C@]3(O)C[C@H](OC(=O)[C@H](O)[C@@H](NC(=O)c4ccccc4)c4ccccc4)C(C)=C1C3(C)C)[C@]1(OC(C)=O)CO[C@@H]1C[C@@H]2O [taxol] | – | – | – | – | – | – | – | – | – | – | multi-polar spindles and multiple nuclei were formed |
